# Measured values published in ChEMBL document CHEMBL1148430, “Synthesis of novel 2-nitroimidazole-tethered tricyclic quinolines, bearing a second heteroatom, and their in vitro evaluation as hypoxia-selective cytotoxins and radiosensitizers” (Bioorg Med Chem Lett, 2004).
# Key:
# [1] = Partition coefficient in octanol/water; assay type: physicochemical
# V79 [2] = test: Cytotoxicity of compound was measured against suspended V79 cells under aerobic conditions in clonogenic assay; assay type: functional, Cricetulus griseus
# V79 [3] = test: Cytotoxicity of compound was measured against suspended V79 cells under hypoxic conditions in clonogenic assay; assay type: functional, Cricetulus griseus
# [4] = In vitro therapeutic index of compound was measured inV79 cells; assay type: cell-based, Cricetulus griseus; settings: chinese hamster, V79 cells; read-out: T.I.
# [5] = Concentration required to reduce fluorescence in ethidium bromide displacement assay using EB-DNA complex
# [6] = Ratio (HS) of CT50 values in aerobic condition to hypoxic condition (in N2 presence) given as CT50(A)/CT50(H); assay type: functional
SMILES,PC [1],CT50 (V79 [2]) [µM],CT50 (V79 [3]) [µM],selectivity ratio [4],C50 [5] [µM],Ratio [6]
Cl.O=[N+]([O-])c1nccn1CCCNc1c2c(nc3ccccc13)CCCC2,0.14,360,33,20,58,11
Cl.O=[N+]([O-])c1nccn1CCCNc1c2ccccc2nc2ccccc12,0.07,84,15,11,9,5.5
Cl.O=[N+]([O-])c1nccn1CCCNc1c2c(nc3ccccc13)CCSC2,0.4,580,68,15,58,9
CN1CCc2nc3ccccc3c(NCCCn3ccnc3[N+](=O)[O-])c2C1.Cl,0.41,426,–,7,45,2.2
